From patent publication US9868748B2, “Thiazolopyrrolidine inhibitors of ROR- γ” (Vitae Pharmaceuticals, Inc., priority 2013, dated 2018) come the findings set out here.

What is called IC50 is the concentration needed to halve the response being measured. A word on the Ki: it is a measure of affinity in units of concentration, obtained from inhibition or displacement.

For assay [1], the target named is full-length RORγt in Jurkat cells (Homo sapiens (Human), UniProt P51449). Briefly: RORγt 5xRORE Assay in Jurkat Cells (Assay 2). Format: cell-based. The note with it: Nanoluc luciferase reporter, 16-18 hrs, Table 8, read-out: RORγt5X IC50 Range*. The method, boiled down: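 Inverse agonist activity was read as NanoGlo luminescence from conditioned medium after 16–18 h compound exposure (37 °C, 0.1% DMSO final). The cells were Jurkat, transiently transfected with RORγt and a secNluc reporter carrying five RORE repeats, seeded 80,000 per well in delipidated-serum RPMI.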
(In general: In a reporter assay the amount or activity of a reporter protein is the signal.)

The target in assay [2] is recombinant RORγ Ligand Binding Domain (LBD) protein (Homo sapiens (Human), UniProt P51449). Kind of assay: Radio-Ligand RORγ Binding Assay (Assay 1). The note with it: competition with 25-hydroxy [26,27-3H]-cholesterol, SPA; Table 8; read-out: RORγ Binding Ki Range*. The method, boiled down: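 Recombinant human RORγ ligand binding domain (6×His-GST fusion, 24 nM stock) competed with tritiated 25-hydroxycholesterol (8.6 nM stock) in HEPES buffer pH 7.4 with detergents and DTT; poly-Lys YSi SPA beads, room temperature, tritium SPA signal. Four-parameter IC50 from semi-log dilutions, normalised to DMSO and 10 μM T0901317, then Ki via KD equation.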

Each structure is given as a SMILES string. Some results are limits rather than exact numbers.

Sequence of recombinant RORγ Ligand Binding Domain (LBD) protein (P51449 269-508): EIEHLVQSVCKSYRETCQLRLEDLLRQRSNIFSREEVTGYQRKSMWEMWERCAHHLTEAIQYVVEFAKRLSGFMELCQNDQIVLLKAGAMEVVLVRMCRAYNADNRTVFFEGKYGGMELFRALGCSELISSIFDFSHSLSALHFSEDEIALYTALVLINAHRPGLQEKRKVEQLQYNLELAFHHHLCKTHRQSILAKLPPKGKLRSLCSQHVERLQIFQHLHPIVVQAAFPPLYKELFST
Sequence of full-length RORγt in Jurkat cells (P51449 other isoform, or with tags, fused parts or gaps): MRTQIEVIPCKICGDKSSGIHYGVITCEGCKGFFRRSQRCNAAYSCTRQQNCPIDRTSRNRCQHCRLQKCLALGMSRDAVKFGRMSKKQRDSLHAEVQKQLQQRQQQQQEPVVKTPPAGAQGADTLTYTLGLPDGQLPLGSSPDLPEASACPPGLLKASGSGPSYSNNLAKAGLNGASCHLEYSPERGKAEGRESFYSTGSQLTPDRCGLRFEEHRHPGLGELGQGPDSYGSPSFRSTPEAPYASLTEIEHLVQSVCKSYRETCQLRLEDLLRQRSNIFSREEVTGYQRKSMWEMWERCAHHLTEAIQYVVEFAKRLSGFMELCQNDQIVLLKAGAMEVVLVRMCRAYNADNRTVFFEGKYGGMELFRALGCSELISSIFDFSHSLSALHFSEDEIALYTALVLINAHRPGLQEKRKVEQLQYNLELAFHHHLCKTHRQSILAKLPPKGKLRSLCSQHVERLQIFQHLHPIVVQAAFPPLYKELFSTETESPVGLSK

Regarding `CCS(=O)(=O)c1ccc(CC(=O)Nc2nc3c(s2)CN(Cc2ccc(-c4ccn(C)c(=O)c4)cc2)[C@H]3C(C)C)cc1` [I-A18, (S)-2-(4-(ethylsulfonyl)phenyl)-N-(4-isopropyl-5-(4-(1-methyl-2-oxo-1,2-dihydropyridin-4-yl)benzyl)-5,6-dihydro-4H-pyrrolo[3,4-d]thiazol-2-yl)acetamide], the IC50 in assay [1] was under 100 nM. For the same compound, the Ki in assay [2] is under 100 nM.

`CCS(=O)(=O)c1ccc(CC(=O)Nc2nc3c(s2)CN(Cc2ccc(-c4ccc(=O)n(C)c4)cc2)[C@H]3C(C)C)cc1` [I-A19, (S)-2-(4-(ethylsulfonyl)phenyl)-N-(4-isopropyl-5-(4-(1-methyl-6-oxo-1,6-dihydropyridin-3-yl)benzyl)-5,6-dihydro-4H-pyrrolo[3,4-d]thiazol-2-yl)acetamide]: the IC50 in assay [1] is under 100 nM. Moreover, the inhibition constant (Ki) in assay [2] was under 100 nM.

For `CCS(=O)(=O)c1ccc(CC(=O)Nc2nc3c(s2)CN(CC2CCN(CC(F)(F)F)CC2)[C@H]3C(C)C)cc1` [I-A20, (S)-2-(4-(ethylsulfonyl)phenyl)-N-(4-isopropyl-5-((1-(2,2,2-trifluoroethyl)piperidin-4-yl)methyl)-5,6-dihydro-4H-pyrrolo[3,4-d]thiazol-2-yl)acetamide], in assay [1], the concentration for half-maximal inhibition (IC50) is under 100 nM. Further, the Ki in assay [2] was under 100 nM.

As to `CCS(=O)(=O)c1ccc(CC(=O)Nc2nc3c(s2)CN(Cc2ccc(C(F)(F)F)nc2C)[C@H]3C(C)C)cc1` [I-A21], the half-maximal inhibitory concentration (IC50) in assay [1] was under 100 nM. In addition, the inhibition constant (Ki) in assay [2] was under 100 nM.

For the compound `CCS(=O)(=O)c1ccc(CC(=O)Nc2nc3c(s2)CN(C[C@H]2CC[C@H](C(F)(F)F)N(C)C2)[C@H]3C(C)C)cc1` [I-A22], the IC50 in assay [1] was under 100 nM. In assay [2], the inhibition constant Ki was under 100 nM.

As for `CCS(=O)(=O)c1ccc(CC(=O)Nc2nc3c(s2)CN(C[C@H]2CC[C@H](c4nnc(C)o4)CC2)[C@H]3C(C)C)cc1` [I-A23], the IC50 in assay [1] was under 100 nM. Further, the Ki in assay [2] is under 100 nM.

In the case of `CCS(=O)(=O)c1ccc(CC(=O)Nc2nc3c(s2)CN([C@H](C)c2ccc(Br)cc2F)[C@H]3C(C)C)cc1` [I-A24], in assay [1], the concentration for half-maximal inhibition (IC50) is under 100 nM. Moreover, the Ki in assay [2] was under 100 nM.

For `CCS(=O)(=O)c1ccc(CC(=O)Nc2nc3c(s2)CN([C@@H](C)c2ccc(Br)cc2F)[C@H]3C(C)C)cc1` [I-A25], in assay [1], the IC50 is under 100 nM. Further, the Ki in assay [2] was under 100 nM.

Consider `CCS(=O)(=O)c1ccc(CC(=O)Nc2nc3c(s2)CN(C[C@@H]2CC[C@@H](C(F)(F)F)OC2)[C@H]3C(C)C)cc1` [I-A26], for which the half-inhibitory concentration (IC50) in assay [1] was under 100 nM. In addition, the Ki in assay [2] was under 100 nM.

As to `CCS(=O)(=O)c1ccc(CC(=O)Nc2nc3c(s2)CN(C[C@H]2CC[C@H](C(F)(F)F)OC2)[C@H]3C(C)C)cc1` [I-A27], in assay [1], the half-maximal inhibitory concentration (IC50) is under 100 nM. Moreover, the Ki in assay [2] is under 100 nM.

In the case of `CCS(=O)(=O)c1ccc(CC(=O)Nc2nc3c(s2)CN(C[C@H]2CC[C@H](OC(F)F)CC2)[C@H]3C(C)C)cc1` [I-A28], the 50% inhibitory concentration (IC50) in assay [1] is under 100 nM. Moreover, in assay [2], the Ki is under 100 nM.

`CCS(=O)(=O)c1ccc(CC(=O)Nc2nc3c(s2)CN(C[C@@H]2CC[C@@H](C(F)(F)F)N(C)C2)[C@H]3C(C)C)cc1` [I-A29]: the half-maximal inhibitory concentration (IC50) in assay [1] is under 100 nM. Further, the inhibition constant (Ki) in assay [2] is under 100 nM.

For `CCS(=O)(=O)c1ccc(CC(=O)Nc2nc3c(s2)CN(Cc2ccc(C(F)(F)F)c(OC)n2)[C@H]3C(C)C)cc1` [I-A31], the IC50 in assay [1] was under 100 nM. For the same compound, the Ki in assay [2] is under 100 nM.

For `CCS(=O)(=O)c1ccc(CC(=O)Nc2nc3c(s2)CN(C(C)c2c(F)cc(Cl)cc2F)[C@H]3C(C)C)cc1` (some centres unmarked) [I-A32], the IC50 in assay [1] is under 100 nM. In addition, the inhibition constant Ki in assay [2] is under 100 nM.

Take `CCS(=O)(=O)c1ccc(CC(=O)Nc2nc3c(s2)CN(Cc2ccc(C(F)(F)F)c(C)n2)[C@H]3C(C)C)cc1` [I-A33]: the IC50 in assay [1] is under 100 nM. The Ki in assay [2] was under 100 nM.

For the compound `CCS(=O)(=O)c1ccc(CC(=O)Nc2nc3c(s2)CN([C@H](C)c2ccc(C(F)(F)F)cc2)[C@H]3C(C)C)cc1` [I-A34], the IC50 in assay [1] is under 100 nM. The Ki in assay [2] is under 100 nM.
